Source: US20160235778A1, “COMPOSITIONS CONTAINING PUFA, URIDINE AND CHOLINE AND METHODS OF USE THEREOF” (MASSACHUSETTS INSTITUTE OF TECHNOLOGY, priority 2014, published 2016)

What was measured:
[1] = system: brain phospholipids; assay: Brain phospholipid levels in pups of treated pregnant and nursing mothers; format: in vivo; conditions: rat pups
Procedure: In another study, pregnant rats were allowed to consume ad libitum, for 10 days before parturition and 20 days while nursing, either a choline-containing control diet or this diet supplemented with uridine as UMP; half of each group also received DHA or its diluent daily, by gavage. Pups were then sacrificed and brain slices were examined to determine numbers of hippocampal dendritic spines.
Pregnant and nursing rats were administered DHA and/or uridine as described in Example 9. At 20 days post-birth, rats were sacrificed and brain samples were obtained and assayed for phospholipids. Administration of DHA alone increased brain PC, PI, PE, and sphingomyelin (SM) per cell (DNA) by 36, 166, 38, and 78%, respectively. UMP markedly amplified the effects of DHA to 66, 210, 68, and 99% of control, respectively (Table 8). These increases were greater than those observed in adult animals. Similar results were obtained when normalizing to protein (Table 9). Thus, administration of DHA and/or uridine to pregnant and nursing mothers is able to increase phospholipid levels in the offspring.

[2] = system: brain CDP-choline; assay: Brain CDP-choline and CDP-ethanolamine levels (HPLC); format: in vivo; conditions: gerbil
Procedure: FIG. 5A-B. Effects of DHA on brain CDP-choline levels (FIG. 5A) and CDP-ethanolamine levels (FIG. 5B). Groups of 8 gerbils received either a control or a UMP-containing diet, and, by gavage, DHA (in a vehicle of 5% gum Arabic solution) or 5% gum Arabic solution alone for 28 days. On the 29th day brains were harvested and assayed for CDP-choline. Data are presented as means±SEM. Statistical analysis was performed using one- or two-way ANOVA followed by Tukey test. a: P<0.05 when compared with the values for control diet plus vehicle group; b: P<0.05 when compared with values for UMP diet plus vehicle group.
Aliquots (2 ml) of the upper (aqueous) phase were dried under a vacuum, reconstituted, and injected into an HPLC. The dried samples were reconstituted in 100-200 μl water and were analyzed by HPLC on an anion exchange column (Alltech Hypersil APS-2, […], 250×4.6 mm). CDP-choline was eluted with a linear gradient of buffers A (H3PO4, 1.75 mM, pH 2.9) and B (NaH2PO2, 500 mM, pH 4.5) from 0 to 100% B over period of 30 min. With this system, CDP-choline was resolved from closely co-eluting substances such as UMP in an isocratic system over a period of 40 min. The retention time for CDP-choline was 9.5 min. The column was washed with buffer B at the end of each experiment and every several days to remove retained nucleotides. Individual nucleotide peaks were detected by UV absorption at 280 nm and were identified by comparison with the positions of authentic standards, as well as by the addition of nucleotide standards to samples.

[3] = system: Rat hippocampal cells; assay: 14C-choline incorporation into PC in cultured hippocampal neurons; format: cell-based; conditions: DHA+choline, 14C-choline 2 h, FIG. 10
Procedure: Rat hippocampal cells were cultured for 3 weeks in Neutrobasal plus B27 medium, to reach full maturation. On the day of the experiment, cells were incubated with DMEM+choline, with or without added DHA. ^14C-choline was added, cells were incubated for an additional 2 h, and newly-formed ^14C-labeled PC was extracted and measured as described in Example 1.

[4] = system: PC-12 cells; assay: 14C-choline incorporation into phospholipids in PC-12 cells; format: cell-based
Procedure: PC-12 cells were maintained in Dulbecco's modified Eagle's medium (DMEM)+10% fetal bovine serum (FBS). For experiments, cells were grown in quintuplicate collagen-coated 35 millimeter (mm) dishes. Cells were incubated for 18 hours (hr) in serum-free DMEM containing 28 μM choline+/−5 micromolar (μM) of DHA, oleic acid, or palmitic acid. Cells were then labeled for 2.5 hr with 0.5 microcurie (μCi)/ml ^14C-choline in serum-free DMEM containing 10-micromolar (μM) choline.
Cells were homogenized in 100 volumes of ice-cold deionized water using a tissue degrader (Polytron PT 10-35, Kinematica AG, Switzerland); 1 ml of aliquots were then mixed with 3 ml of chloroform+methanol mixture (2:1 v/v) and vortexed vigorously for 30 seconds. After cooling for 1 h on ice, the mixture was mixed sequentially with 3 ml of chloroform+methanol mixture (2:1 v/v) and 1 ml of ice-cold deionized water. […] Total phosphorus was determined by comparison with standard curves by using KH2PO4 run with each assay. […] Absorbance was measured spectrophotometrically at 820 nm. Phospholipid mass was determined by multiplying the phosphorus content by 25.
To further characterize the stimulation of phospholipid synthesis by omega-3 fatty acids, PC-12 cells were pre-treated with different doses of DHA and exposed to labeled choline as described in Example 1, then incorporation of ^14C-label into phospholipids was measured. […]

[5] = postnatal day 20, normalized to DNA
[6] = postnatal day 20, normalized to protein

CCC=CCC=CCC=CCC=CCC=CCC=CCCC(=O)O [DHA, 4,7,10,13,16,19-docosahexaenoic acid]
PC, percent increase over control [1, 5]: 36%
PE, percent increase over control [1, 5]: 38%
PI, percent increase over control [1, 5]: 166%
SM, percent increase over control [1, 5]: 78%
Total Phospholipids, percent increase over control [1, 5]: 30%
PC, percent increase over control [1, 6]: 23%
PE, percent increase over control [1, 6]: 24%
PI, percent increase over control [1, 6]: 141%
SM, percent increase over control [1, 6]: 59%
Total Phospholipids, percent increase over control [1, 6]: 16%
reduction of brain CDP-choline levels in UMP-treated gerbils ([2]; 28 days, compared with UMP-containing diet and DHA's vehicle): 21%
reduction of brain CDP-choline levels ([2]; 28 days, compared with control diet and DHA's vehicle): 26%
brain CDP-choline levels, in words ([2]; FIG. 5A): decreased
brain CDP-ethanolamine levels, in words ([2]; FIG. 5B): decreased
increase in synthesis of phospholipids relative to choline alone (control) [3]: more than 2 fold
Phosphatidylcholine (PC) synthesis (incorporation of 14C label into PC) ([4]; 18 h pre-incubation with 5 μM fatty acid, FIG. 1): significantly increased
synthesis of phospholipids (incorporation of 14C-label) ([4]; different doses of DHA, dose-dependent, FIG. 2): increased synthesis of phospholipids
